In article PMC12387469, “Dolabellane Diterpenoids from Soft Coral Clavularia viridis with Anti-Inflammatory Activities” (Marine Drugs, 2025) one finds inhibition, CC50 and IC50 data, which are given here for 16 molecules.

A value given as a limit tells only on which side of the number the result lay.

Broadly, the inhibition is how much of the control response was suppressed. Broadly, the CC50 is the concentration that lowers cell viability or growth by half. A lower CC50 goes with greater toxicity to the cells. One may read the IC50 as the midpoint of a concentration-inhibition curve.

Data set [1] relates to NO production in LPS-stimulated BV2 cells. Kind of data set: Inhibition of NO production in LPS-stimulated BV2 cells (Griess reagent). Conditions: Mus musculus; for inhibition at 20 µM: BV-2, read-out: NO Inhibitory Activity % Inhibition (20 μM); for IC50: BV-2, read-out: NO Inhibitory Activity IC50. A general note: The Griess reaction detects nitrite, a stable product of nitric oxide.
Protocol: To evaluate the anti-inflammatory effect, all compounds were screened on an LPS-stimulated BV2 model to determine the inhibitory effects against NO production [21].
The BV-2 mouse microglia cell line was purchased from the Cell Bank of Shanghai Institute of Biochemistry and Cell Biology, Chinese Academy of Sciences (Shanghai, China), and was cultured in Dulbecco’s modified Eagle medium (DMEM, Gibco Invitrogen Corp., Suzhou, China) supplemented with 10% fetal bovine serum (FBS), 100 units/mL penicillin, and 100 mg/mL streptomycin. The cells were placed at 37 °C in a humidified incubator containing 5% CO2.
The inhibitory activity of the isolated compounds toward NO production was determined using the Griess reagent system (Beyotime). Cells were cultured in each well of 96-well plates at a density of 5 × 10^4 cells/well with 100 mL of DMEM for 24 h. Test samples dissolved in DMSO and diluted with DMEM were added, as well as 2 mg/mL LPS as a stimulus. The final drug concentration was 50 μM with 1% DMSO. Wells treated with only LPS served as model controls, and wells treated with neither LPS nor test samples served as blank controls (all contained 1% DMSO). After 24 h incubation, half of the medium (50 mL) in each well was harvested.

The nature of data set [2]: Cytotoxic effect in BV-2 cells, Cell Counting Kit-8 (CCK-8) assay. Conditions: mouse, BV-2 microglia cells. It is filed as cell-based. As for the experimental part: Cells were pretreated with or without compounds for 2 h and then induced with 40 μg/mL LPS for another 48 h. […] The absorbance was then measured at a wavelength of 450 nm with a microplate reader (Thermo Fisher Scientific, Marietta, OH, USA). The cell proliferation was expressed as a ratio of control.

As for `C=C1CCC=C(C)CC(O)C2C(C)(CC1)CC1OC12C(C)(C)O` (stereo not shown) [Compound 7, clavularol C], in data set [1], the inhibition at 20 µM was found to be 24 ± 3.8%. The CC50 at 50 h in data set [2] is above 50 µM.
Take `C=C1CC[C@@H]2O[C@@]2(C)C[C@@H](O)C2=C(C(C)(C)O)CC[C@@]2(C)CC1` [Compound 8, Clavularol D]: the inhibition at 20 µM in data set [1] was found to be 35.9 ± 4.2%. This molecule also displayed a CC50 at 50 h in data set [2] above 50 µM.
In the case of `C=C1CCC=C(C)CC(O)C2C(C(C)(C)O)=CCC2(C)CC1` (stereo not shown) [Compound 13, clavularinlide E], in data set [1], the inhibition at 20 µM came to 45.6 ± 3.5% and the IC50 was found to be 20.3 ± 0.3 µM. Also, in data set [2], the cytotoxic concentration (CC50) at 50 h is above 50 µM.
In the case of `CC1=C2CC[C@@]3(C)CC[C@H](C)CC(=O)C[C@@H](C)C[C@@H](OC1=O)[C@H]23` [Compound 15, clavirolide C], in data set [1], the inhibition at 20 µM was determined as 48.3 ± 3.6% and the half-maximal inhibitory concentration (IC50) was 23.4 ± 0.4 µM. This molecule returned a half-maximal cytotoxic concentration (CC50) at 50 h in data set [2] above 50 µM.
`C=C1CC[C@@H]2O[C@@]2(C)C[C@@H](O)[C@@H]2C(C(C)(C)O)=CC[C@@]2(C)CC1` [Compound 10, clavularol F]: in data set [1], the inhibition at 20 µM amounted to 68.9 ± 3.6% and the IC50 amounted to 18.3 ± 0.6 µM. Besides, the CC50 at 50 h in data set [2] is above 50 µM.
Regarding `CC1=C2C(O)CC3(C)CCC(C)CC(=O)CC(C)CC(OC1=O)C23` (stereo not shown) [Compound 1, Clavirolide W], the inhibition at 20 µM in data set [1] was determined as 15.1 ± 2.4%. The half-maximal cytotoxic concentration (CC50) at 50 h in data set [2] is above 50 µM.
Turning to `[H]/N=C(/NC)NCCC[C@H](N)C(=O)O` [L-NMMA, L-NG-monomethyl arginine, reference compound], in data set [1], the inhibition at 20 µM stood at 76.7 ± 4.2% and the IC50 is 17.8 ± 0.6 µM.
`CC1=CC(=O)CC(C)=CC(O)C2C(C(C)(C)OO)=CCC2(C)CC1` (stereo not shown) [Compound 6, clavularol B]: the inhibition at 20 µM in data set [1] amounted to 14.6 ± 1.2%. The molecule further yielded a CC50 at 50 h in data set [2] above 50 µM.
`C=C1CCC2OC2(C)CC(O)C2=C(C(C)(C)O)CCC2(C)CC1` (stereo not shown) [Compound 9, Clavularol E]: the inhibition at 20 µM in data set [1] stood at 12.6 ± 2.6%. Further, the CC50 at 50 h in data set [2] is above 50 µM.
The corresponding values for `CC1=CC(OO)C2(C)CCC3=C(C)C(=O)OC(CC(C)CC(=O)C1)C32` (stereo not shown) [Compound 5, clavularol A] are 26.8 ± 3.6% and above 50 µM.
Take `CC1=CC(=O)C=C(C)CC2OC(=O)C(C)=C3CCC(C)(CC1)C32` (stereo not shown) [Compound 3, Clavirolide Y]: in data set [1], the inhibition at 20 µM was determined as 42.7 ± 3.5% and the IC50 was determined as 27 ± 0.6 µM. In data set [2], this molecule had a CC50 at 50 h above 50 µM.
`C=C1CCC(O)C(C)=CC2OC(C)(C)C3=C2C(C)(CC1)CC3` (stereo not shown) [Compound 12, Clavularol H]: in data set [1], the inhibition at 20 µM turned out to be 48.8 ± 4.2% and the IC50 turned out to be 20.3 ± 0.3 µM. In addition, in data set [2], the CC50 at 50 h is above 50 µM.
For `C=C1CC[C@H]2O[C@]2(C)C[C@@H](O)[C@H]2[C@](C)(CC1)CC[C@@]2(O)C(=C)C` [Compound 11, Clavularol G], the inhibition at 20 µM in data set [1] came to 18.4 ± 2.8%. The same molecule returned a CC50 at 50 h in data set [2] above 50 µM.
In the case of `CC1=CCC2(C)CCC3=C(C)C(=O)OC(CC(C)CC(=O)C1)C32OO` (stereo not shown) [Compound 4, Clavirolide Z], in data set [1], the inhibition at 20 µM was determined as 29 ± 2.8%. Besides, the CC50 at 50 h in data set [2] is above 50 µM.
With `CC1=C2CCC3(C)CCC(C)CC(=O)CC(C)CC(OC1=O)C23OO` (stereo not shown) [Compound 2, Clavirolide X], the inhibition at 20 µM in data set [1] worked out at 36.4 ± 1.7%. Besides, the CC50 at 50 h in data set [2] was above 50 µM.
Taken in the same sequence, the figures for `C=C1CCC=C(C)CC(O)C2=C(C(C)(C)O)CCC2(C)CC1` (stereo not shown) [Compound 14, clavudiol A] were 25.4 ± 2.4% and above 50 µM.
